Test results published in US11059778B2, “Cannabinoid receptor CB2 ligand 4-(aminomethyl)-N, N-dialkylanilines” (UNIVERSITY OF PITTSBURGH—OF THE COMMONWEALTH SYSTEM OF …, priority 2015, dated 2021).

Biological target: T1, CHO cells expressing human CB2 receptors (Homo sapiens, UniProt P34972)
T1 construct: expressed in transfected cells; host or cells: CHO cells, stably transfected
Test: cell-based LANCE cAMP assay
Conditions: forskolin-stimulated, RO-20-1724 present, FIG. 4
Method: FIG. 4 relates to cAMP Assay Results. LANCE signal of CB2 ligands. Stably transfected CHO cells expressing human CB2 receptors were utilized to carry out the LANCE cAMP assay. […] Data is mean±SEM of all experiments of two or more performed in triplicate.
(§1) The antibodies are labeled with Alexa Fluor dye that is sensitive to energy emissions. Briefly, the cell-based LANCE cAMP assays were performed on 384-well ProxiPlates using CHO cells stably expressing the CB2 receptors at density of 2×10^3 cells per well in 5 μL of RPMI-1640 medium (Gibco Laboratories, Grand Island, N.Y.) containing 1% dialyzed FBS, 25 mM HEPES, […], and 200 μg/ml of […]. After incubation overnight, 2.5 μL of cAMP antibody and RO20-1724 (a phosphodiesterase inhibitor) in stimulation buffer (DPBS 1×, containing 0.1% BSA) was added to each well, followed by the addition of 2.5 μL of the compound plus the forskolin complex (an adenyl cyclase activator). After incubation at room temperature for 45 minutes, 10 μL of detection buffer was added into each well. The plate was then incubated at room temperature for 1 hour. The plate was then measured in a Synergy H1 hybrid reader (BioTek) with excitation at 340 nm and emission at 665 nm. The results represent at least two independent experiments each in triplicates. EC50 values were determined by nonlinear regression dose-response curve (GraphPad Prism 5).
as §1, with “Cyclic AMP levels were measured by performing the cell-based LANCE cAMP-384 kit assay (PerkinElmer) as previously described 13-14. The assay is based on the competition between the europium-labeled cAMP tracer complex and sample cAMP for binding sites on cAMP-specific antibodies. The antibodies” for “The antibodies”
The LANCE cAMP assay was carried out to measure the functional activities of our synthesized CB2 selective ligands as previously described 14. Briefly, the assay was performed on 384-well plates using CHO cells stably expressing CB2 receptors in the presence of phosphodiesterase inhibitor, RO-20-1724 and adenyl cyclase activator, forskolin.

T1 sequence (P34972 whole entry): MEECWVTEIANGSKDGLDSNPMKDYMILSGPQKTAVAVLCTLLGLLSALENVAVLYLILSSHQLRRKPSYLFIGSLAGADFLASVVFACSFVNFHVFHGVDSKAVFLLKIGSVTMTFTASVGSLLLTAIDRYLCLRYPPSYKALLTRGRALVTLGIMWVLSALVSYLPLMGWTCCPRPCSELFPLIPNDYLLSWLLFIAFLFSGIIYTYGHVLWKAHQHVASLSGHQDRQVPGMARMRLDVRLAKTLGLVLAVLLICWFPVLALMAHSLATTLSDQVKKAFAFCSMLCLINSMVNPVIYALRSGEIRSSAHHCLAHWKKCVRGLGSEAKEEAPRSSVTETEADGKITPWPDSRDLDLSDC

Row | SMILES | CB2 functional activity (LANCE cAMP signal)
1 | CCN(CC)c1ccc(CN(Cc2cc(OC)c(OC)c(OC)c2)C(=O)c2cccs2)cc1 [Compound 11, N-(4-(diethylamino)benzyl)-N-(3,4,5-trimethoxybenzyl)thiophene-2-carboxamide] | CB2 selective agonist
2 | CCN(CC)c1ccc(CN(Cc2cc(OC)c(OC)c(OC)c2)S(=O)(=O)c2ccc(C=O)cc2)cc1 [Compound 18, N-(4-(diethylamino)benzyl)-4-formyl-N-(3,4,5-trimethoxybenzyl)benzenesulfonamide] | inverse agonists
3 | CCN(CC)c1ccc(CN(Cc2cc(OC)c(OC)c(OC)c2)S(=O)(=O)/C=C/c2ccccc2)cc1 [Compound 15, (E)-N-(4-(diethylamino)benzyl)-2-phenyl-N-(3,4,5-trimethoxybenzyl)ethene-1-sulfonamidebenzenesulfonamide] | inverse agonists
